Test results taken from ChEMBL document CHEMBL1124314, “Development of phosphonate derivatives of gadolinium chelates for NMR imaging of calcified soft tissues” (J Med Chem, 1989).

Assays:
[1] = Ratio of uptake of [GD] in bone 1 hr post injection with 0.05 to that of muscle; type: functional
[2] = Ratio of uptake of [GD] in bone 1 hr post injection with 0.20 to that of blood; type: functional
Rattus norvegicus [3] = species on record: Rattus norvegicus; test: Uptake of [GD] in bone 1 hr post injection with 0.05 of the compound; type: functional, Bone element
Rattus norvegicus [4] = species on record: Rattus norvegicus; test: Uptake of [GD] in bone 1 hr post injection with NCA GD dose; type: functional, Bone element
[5] = Ratio of uptake of [GD] in bone 1 hr post injection with 0.02 to that of blood; type: functional
[6] = Ratio of uptake of [GD] in bone 1 hr post injection with 0.20 to that of muscle; type: functional
[7] = Ratio of uptake of [GD] in bone 1 hr post injection with 0.10 to that of blood; type: functional
Rattus norvegicus [8] = species on record: Rattus norvegicus; test: Uptake of [GD] in bone 1 hr post injection with 0.10 of the compound; type: functional, Bone element
[9] = Ratio of uptake of [GD] in bone 1 hr post injection with 0.05 to that of blood; type: functional
[10] = Ratio of uptake of [GD] in bone 1 hr post injection with NCA GD dose to that of blood; type: functional
Rattus norvegicus [11] = species on record: Rattus norvegicus; test: Uptake of [GD] in bone 1 hr post injection with 0.02 of the compound; type: functional, Bone element
Rattus norvegicus [12] = species on record: Rattus norvegicus; test: Uptake of [GD] in bone 1 hr post injection with 0.20 of the compound; type: functional, Bone element
[13] = Uptake of [GD] in bone 1 hr post injection with NCA GD dose to that of muscle; type: functional, Muscle tissue
[14] = Ratio of uptake of [GD] in bone 1 hr post injection with 0.02 to that of muscle; type: functional
[15] = Ratio of uptake of [GD] in bone 1 hr post injection with 0.005 to that of muscle; type: functional
Rattus norvegicus [16] = species on record: Rattus norvegicus; test: Uptake of [GD] in bone 1 hr post injection with 0.005 of the compound; type: functional, Bone element
[17] = Ratio of uptake of [GD] in bone 1 hr post injection with 0.10 to that of muscle; type: functional
[18] = Ratio of uptake of [GD] in bone 1 hr post injection with 0.005 to that of blood; type: functional

`O=C(O)CN(CCN(CC(=O)O)CC(=O)O)CCN(CC(=O)O)CC(=O)NCCC(O)P(=O)(O)OP(=O)(O)O` (stereo not drawn) gave a Ratio [1] of 19.6, a Ratio [2] of 13.9 and an ID (Rattus norvegicus [3]) of 21.2%. It also gave an ID (Rattus norvegicus [4]) of 57%, a Ratio [5] of 34.9 and a Ratio [6] of 8.08. It also gave a Ratio [7] of 25.7, an ID (Rattus norvegicus [8]) of 16.1% and a Ratio [9] of 29.8. For the same molecule, the Ratio [10] was 108, the ID (Rattus norvegicus [11]) was 28.9% and the ID (Rattus norvegicus [12]) was 13.5%. It also gave a Ratio [13] of 70.6, a Ratio [14] of 20.1 and a Ratio [15] of 52.7. For the same molecule, the ID (Rattus norvegicus [16]) was 44.4%, the Ratio [17] was 12.5 and the Ratio [18] was 110.4.
